Key:
[1] = system: rat mast cells; assay: Rat Mast Cell (RMC) histamine release from passively sensitized rat mast cells; type: cell-based; details: passively sensitized in vitro with anti-ovalbumin serum, antigen-induced histamine release, 0.1% DMSO, read-out: RMC I50
Excerpt: The compounds of the present invention are useful as intermediates for making benzo-bis-oxazoles. Further, the compounds of the present invention are useful as antiallergic agents as evidenced by their activity as blockers of histamine release from passively sensitized rat mast cells (RMC) and in the rat passive cutaneous test (PCA). A brief description of the test methods follow.
Rat Mast Cell (RMC) Studies--(Based on E. Kusner, B. Dabnick, D. F. Herzig, J. Pharm. Exp., Ther., 1973, 184, 41.) Rat mast cells were passively sensitized in vitro with anti-ovalbumin serum. Following a 15 minute incubation, the spontaneous histamine release (SR) in the absence of antigent and AIR (in the presence of antigen) were measured fluorometrically with a Technicon Auto Analyzer®.

[2] = system: rat passive cutaneous anaphylaxis (blued wheal area); assay: Passive cutaneous anaphylaxis in the rat (PCA); type: in vivo, rat (male, Sprague Dawley); details: 125 mg/kg p.o.; antigen challenge ten minutes after oral administration
Excerpt: Passive Cutaneous Anaphalixis in the Rat (Based on I. Mota, Life Science, 1963, F 465; and Z. Ovary and O. G. Bier, Proc. Soc. Exp. Biol. and Med., 1952, 81, 584)--Male, Sprague Dawley rats were sensitized at dorsal sites by intradermal injection of syngeneic serum containing IgE anti-ovalbumin.Forty-eight hours later, groups of four rats were given either vehicle (1% methylcellulose) or graded does of compound. Either ten minutes after oral drug administration or five minutes after i.p. drug dosing, rats were challenged intravenously with antigen (ovalbumin) in 1% Evans blue dye. Thirty minutes after antigen challenge, the rats were sacrificed by cervical dislocations, the dorsal skins were reflected and blued wheal areas measured. Mean values±S.D. for wheal areas in control and drug-treated groups were detemined and compared statistically using Student's t-test.

| SMILES | IC50 [1] [µM] | PCA % Inhibition [2] [%] |
| --- | --- | --- |
| O=c1[nH]c2cc3oc(=O)c(=O)[nH]c3cc2oc1=O [Example 2E, Benzo(1,2-b;4,5-b)-bis-[1,4]oxazine-2,3,7,8-tetrone] | 1.2 | 42 |
| O=c1[nH]c2cc3[nH]c(=O)c(=O)oc3cc2oc1=O [Example 1F, Benzo[1,2-b;5,4-b]-bis-[1,4]oxazine-2,3,7,8-tetrone] | 3 | 26 |

From patent US4476125A, “Benzobisoxazinetetrones and anti-allergic use thereof” (USV Pharmaceutical Corporation, priority 1983, dated 1984)
